Data as given in US20170305882A1, “BENZYL SUBSTITUTED INDAZOLES AS BUB1 KINASE INHIBITORS” (Bayer Pharma Aktiengesellschaft, priority 2014, published 2017).
Like-named read-outs stand apart in the source and are kept apart here.

Tests used:
[1] = biological target: T1, (recombinant) catalytic domain of human Bub1 (amino acids 704-1085) (Homo sapiens, UniProt O43683); experiment: Bub1 kinase assay (TR-FRET); type: biochemical
T1 construct: catalytic domain of human Bub1 (amino acids 704-1085); 6xHis (N); made in house; host or cells: Hi5 insect cells
T1 sequence (O43683 704-1085): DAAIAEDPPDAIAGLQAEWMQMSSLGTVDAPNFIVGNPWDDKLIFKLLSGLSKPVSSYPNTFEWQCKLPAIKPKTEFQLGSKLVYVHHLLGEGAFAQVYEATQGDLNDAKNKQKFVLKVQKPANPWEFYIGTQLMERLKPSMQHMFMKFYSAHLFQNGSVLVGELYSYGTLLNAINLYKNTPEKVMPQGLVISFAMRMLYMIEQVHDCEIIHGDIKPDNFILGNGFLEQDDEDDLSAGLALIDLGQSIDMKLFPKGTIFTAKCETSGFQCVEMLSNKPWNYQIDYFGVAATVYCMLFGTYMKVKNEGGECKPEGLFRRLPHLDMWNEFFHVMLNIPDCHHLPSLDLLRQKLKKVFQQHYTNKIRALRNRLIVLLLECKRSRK

[2] = test system: HeLa human cervical tumor cells; experiment: Proliferation assay (HeLa cell line); type: cell-based; details: 96 h, 4 days incubation, crystal violet, read-out: Biological Assay 2: Proliferation assay (HeLa cell line) median IC50
Description: Human tumour cells were originally obtained from the American Type Culture Collection (ATCC), the Deutsche Sammlung von Mikroorganismen und Zellkulturen (DSMZ, German Collection of Microorganisms and Cell Cultures), or Epo GmbH Berlin.

[3] = test system: pre-induced phospho-histone 2A (kinase activity of Bub1); experiment: H2A Abrogation-Assay (cell-based mechanistic assay, pre-treatment with Nocodazole); details: Nocodazole 16 h, then test compound 1 h; read-out: Biological Assay 4:2: H2A Abrogation IC50
Description: Biological Assay 4.2: Abrogation-Assay
This assay measures the inhibition of histone 2A phosphorylation, which was induced by pre-treatment of the cells with Nocodazole, by a Bub1 kinase inhibitor.

[4] = test system: histone 2A phosphorylation (kinase activity of Bub1); experiment: H2A Formation-Assay (cell-based mechanistic assay, co-treatment with Nocodazole); details: 16 h, read-out: Biological Assay 4.1: H2A Formation IC50
Description: Cell-Based Mechanistic Assay: Changes of Phosphorylation Status of Histone 2A by Inhibition of Kinase Activity of Bub1
This assay determines the suppression of histone 2A phosphorylation by a Bub1 kinase inhibitor during co-treatment with Nocodazole. 25000 cells (cells were ordered from ATCC) were seeded in 96well plate for 5 h at 37° C. Cells were treated with Nocodazole (1 μg/ml) and varying concentrations (between 3 nM and 10 μM) of test compounds for 16 h. Cells were fixed (20 min, Fixing solution R&D), washed three times with PBS and blocked with Odyssey blocking buffer before incubating with the primary antibody against phosphorylated H2A (5 μg/ml ABIN482721) overnight at 2-8° C. After washing, secondary IRDye-labeled antibody mix with cell stains was added for 1 h and washed again with PBS. Plates were scanned with LICor Odyssey Infrared Imager CLx at 800 nm for P-H2A and at 700 nm for cell stains Draq5/Sapphire. The quotient of 800 nm and 700 nm for Nocodazole only treated cells was set as 100% and the quotient of 800 nm and 700 nm of untreated cells was set as 0%. […] The IC50 values were determined by means of a 4 parameter fit.

[5] = test system: HeLa human cervical tumor cells; experiment: Proliferation Assay (HeLa + Paclitaxel); type: cell-based; details: 3 nM paclitaxel, test substance 92 hours; read-out: Biological Assay 3: Proliferation Assay (HeLa + Paclitaxel) IC50
Description: Proliferation Assay (HeLa+Paclitaxel):

[6] = ATP 10 μM, 60 min reaction, pH 7.5, read-out: Biological Assay 1: Bub1 kinase assay median IC50

Structure (SMILES) | IC50 [1, 6] | IC50 [2] | IC50 [3] | IC50 [4] | IC50 [5] | IC50 ([1]; probe of the competition assay, read-out: inhibits the kinase activity of Bub1, IC50)
CCOc1cc(F)c(Cn2nc(-c3ncc(OCCCO)c(Nc4ccncc4C)n3)c3ccccc32)c(F)c1 [Example 2-1-2, 3-({2-[1-(4-ethoxy-2,6-difluorobenzyl)-1H-indazol-3-yl]-4-[(3-methylpyridin-4-yl)amino]pyrimidin-5-yl}oxy)propan-1-ol] | 10 nM | 3700 nM | 17 nM | 31 nM |  | 
CCOc1cc(F)c(Cn2nc(-c3ncc(OCCCO)c(Nc4ccncc4C4CC4)n3)c3ccccc32)c(F)c1 [Example 2-1-3, 3-({4-[(3-cyclopropylpyridin-4-yl)amino]-2-[1-(4-ethoxy-2,6-difluorobenzyl)-1H-indazol-3-yl]pyrimidin-5-yl}oxy)propan-1-ol] | 11 nM | 3700 nM | 0.93 nM | 0.97 nM | 54 nM | 
CCOc1cc(F)c(Cn2nc(-c3ncc(OCCCO)c(Nc4ccnc(C)c4)n3)c3ccccc32)c(F)c1 [Example 2-1-4, 3-({2-[1-(4-ethoxy-2,6-difluorobenzyl)-1H-indazol-3-yl]-4-[(2-methylpyridin-4-yl)amino]pyrimidin-5-yl}oxy)propan-1-ol] | 12 nM | 3000 nM | 80 nM | 8.4 nM | 100 nM | 
CCOc1cc(F)c(Cn2nc(-c3ncc(OCCCO)c(Nc4ccnc(C)n4)n3)c3ccccc32)c(F)c1 [Example 2-1-7, 3-({2-[1-(4-ethoxy-2,6-difluorobenzyl)-1H-indazol-3-yl]-4-[(2-methylpyrimidin-4-yl)amino]pyrimidin-5-yl}oxy)propan-1-ol] | 7 nM | > 10000 nM | 48 nM | 87 nM | 190 nM | 
CCOc1cc(F)c(Cn2nc(-c3ncc(OCCCO)c(Nc4ccncn4)n3)c3ccccc32)c(F)c1 [Example 2-1-9, 3-({2-[1-(4-ethoxy-2,6-difluorobenzyl)-1H-indazol-3-yl]-4-(pyrimidin-4-ylamino)pyrimidin-5-yl}oxy)propan-1-ol] | 3.8 nM | > 10000 nM | 33 nM | 171 nM | 330 nM | 
CCOc1cc(F)c(Cn2nc(-c3ncc(OCCCO)c(Nc4ccnc(F)c4)n3)c3ccccc32)c(F)c1 [Example 2-1-10, 3-({2-[1-(4-ethoxy-2,6-difluorobenzyl)-1H-indazol-3-yl]-4-[(2-fluoropyridin-4-yl)amino]pyrimidin-5-yl}oxy)propan-1-ol] | 15 nM | 9000 nM | 23 nM | 44 nM | 1400 nM | 
CCOc1cc(F)c(Cn2nc(-c3ncc(OCCCO)c(Nc4cc(C)ncc4C)n3)c3ccccc32)c(F)c1 [Example 2-1-11, 3-{[4-[(2,5-dimethylpyridin-4-yl)amino]-2-[1-(4-ethoxy-2,6-difluorobenzyl)-1H-indazol-3-yl]pyrimidin-5-yl}oxy)propan-1-ol] | 21 nM | 3200 nM | 17 nM | 26 nM | 260 nM | 
CCOc1cc(F)c(Cn2nc(-c3ncc(OCCCO)c(Nc4cc(NC(C)=O)ncc4C)n3)c3ccccc32)c(F)c1 [Example 2-1-12, N-[4-({2-[1-(4-ethoxy-2,6-difluorobenzyl)-1H-indazol-3-yl]-5-(3-hydroxypropoxy)pyrimidin-4-yl}amino)-5-methylpyridin-2-yl]acetamide] | 35 nM |  |  |  |  | 
OCCCOc1cnc(-c2nn(Cc3c(F)cc(OCC4CC4)cc3F)c3ccccc23)nc1Nc1ccncc1Cl [Example 2-1-13, 3-[(4-[(3-chloropyridin-4-yl)amino]-2-{1-[4-(cyclopropylmethoxy)-2,6-difluorobenzyl]-1H-indazol-3-yl}pyrimidin-5-yl)oxy]propan-1-ol] | 11 nM | 3900 nM | 64 nM | 360 nM | 180 nM | 
CCOc1cc(F)c(Cn2nc(-c3ncc(OCCCO)c(Nc4cc(C)nc(C)n4)n3)c3ccccc32)c(F)c1 [Example 2-1-14, 3-({4-[(2,6-Dimethylpyrimidin-4-yl)amino]-2-[1-(4-ethoxy-2,6-difluorobenzyl)-1H-indazol-3-yl]pyrimidin-5-yl}oxy)propan-1-ol] | > 20000 nM | > 10000 nM | 0.92 nM | 8.7 nM | 39 nM | 
CCOc1cc(F)c(Cn2nc(-c3ncc(OCCCO)c(Nc4ccnc(NC(=O)C5CC5)c4)n3)c3ccccc32)c(F)c1 [Example 2-1-15, N-[4-({2-[1-(4-Ethoxy-2,6-difluorobenzyl)-1H-indazol-3-yl]-5-(3-hydroxypropoxy)pyrimidin-4-yl}amino)pyridin-2-yl]cyclopropancarboxamide] | 8 nM | 3000 nM | 4.6 nM | 37 nM | 140 nM | 
CCOc1cc(F)c(Cn2nc(-c3ncc(OCCCO)c(Nc4cc(C)ncc4F)n3)c3ccccc32)c(F)c1 [Example 2-1-16, 3-({2-[1-(4-Ethoxy-2,6-difluorobenzyl)-1H-indazol-3-yl]-4-[(5-fluor-2-methylpyridin-4-yl)amino]pyrimidin-5-yl}oxy)propan-1-ol] | 16 nM |  |  |  |  | 
CCOc1cc(F)c(Cn2nc(-c3ncc(OCCCO)c(Nc4ccnc(NC(C)=O)c4C)n3)c3ccccc32)c(F)c1 [Example 2-1-17, N-[4-({2-[1-(4-ethoxy-2,6-difluorobenzyl)-1H-indazol-3-yl]-5-(3-hydroxypropoxy)pyrimidin-4-yl}amino)-3-methylpyridin-2-yl]acetamide] | 9.2 nM | > 10000 nM | 3.9 nM | 1.7 nM | 200 nM | 
Cc1nccc(Nc2nc(-c3nn(Cc4c(F)cc(OCC(F)(F)F)cc4F)c4ccccc34)ncc2OCCCO)n1 [Example 2-1-19, 3-[(2-{1-[2,6-difluoro-4-(2,2,2-trifluoroethoxy)benzyl]-1H-indazol-3-yl}-4-[(2-methylpyrimidin-4-yl)amino]pyrimidin-5-yl)oxy]propan-1-ol] | 21 nM | > 10000 nM | 2.5 nM | 3.5 nM | 120 nM | 
OCCCOc1cnc(-c2nn(Cc3c(F)cc(OCC(F)(F)F)cc3F)c3ccccc23)nc1Nc1ccncc1Cl [Example 2-1-20, 3-[(4-[(3-chloropyridin-4-yl)amino]-2-{1-[2,6-difluoro-4-(2,2,2-trifluoroethoxy)benzyl]-1H-indazol-3-yl}pyrimidin-5-yl)oxy]propan-1-ol] | 13 nM | 6200 nM | > 1000 nM | 110 nM | 98 nM | 
CCOc1cc(F)c(Cn2nc(-c3ncc(OCCCO)c(Nc4ccncc4OCC(F)(F)F)n3)c3ccccc32)c(F)c1 [Example 2-1-22, 3-[(2-[1-(4-ethoxy-2,6-difluorobenzyl)-1H-indazol-3-yl]-4-{[3-(2,2,2-trifluoroethoxy)pyridin-4-yl]amino}pyrimidin-5-yl)oxy]propan-1-ol] | 5.7 nM | 1390 nM |  |  | 180 nM | 
Cc1cc(Nc2nc(-c3nn(Cc4c(F)cc(OCC5CC5)cc4F)c4ccccc34)ncc2OCCCO)c(C)cn1 [Example 2-1-23, 3-[(2-{1-[4-(cyclopropylmethoxy)-2,6-difluorobenzyl]-1H-indazol-3-yl}-4-[(2,5-dimethylpyridin-4-yl)amino]pyrimidin-5-yl)oxy]propan-1-ol] | 15 nM | 2320 nM |  |  | 300 nM | 
CC(=O)Nc1cc(Nc2nc(-c3nn(Cc4c(F)cc(OCC(F)(F)F)cc4F)c4ccccc34)ncc2OCCCO)ccn1 [Example 2-1-25, N-(4-{[2-{1-[2,6-difluoro-4-(2,2,2-trifluoroethoxy)benzyl]-1H-indazol-3-yl}-5-(3-hydroxypropoxy)pyrimidin-4-yl]amino}pyridin-2-yl)acetamide] | 19 nM | 1360 nM |  |  | 200 nM | 
COCCOc1cc(F)c(Cn2nc(-c3ncc(OCCCO)c(Nc4ccncn4)n3)c3ccccc32)c(F)c1 [Example 2-1-27, 3{[2-{1-[2,6-difluoro-4-(2-methoxyethoxy)benzyl]-1H-indazol-3-yl}-4-(pyrimidin-4-ylamino)pyrimidin-5-yl]oxy}propan-1-ol] | 4 nM |  |  |  |  | 
CCOc1cc(F)c(Cn2nc(-c3ncc(OCCOCCNC(=S)Nc4ccc(-c5c6ccc(=O)cc-6oc6cc(O)ccc56)c(C(=O)O)c4)c(Nc4ccncc4)n3)c3ccccc32)c(F)c1 [Example 5-5-1, 5-[((2-[2-((2-[1-(4-ethoxy-2,6-difluorobenzyl)-1H-indazol-3-yl]-4-(pyridin-4-ylamino)pyrimidin-5-yl)oxy)ethoxy]ethyl)carbamothioyl)amino]-2-(6-hydroxy-3-oxo-3H-xanthen-9-yl)benzoic acid, reference compound] | 21 nM |  |  |  |  | 20.8 nM
CCOc1cc(F)c(Cn2nc(-c3ncc(OCCO)c(Nc4ccncc4)n3)c3ccccc32)c(F)c1 [Example 5-6-1, 2-({2-[1-(4-ethoxy-2,6-difluorobenzyl)-1H-indazol-3-yl]-4-(pyridin-4-ylamino)pyrimidin-5-yl}oxy)ethanol, reference compound] |  |  |  | 1100 nM | 1400 nM | 
